Tests used:
Assay in all cases: AK assay 384-well format, Prestwick library screening
E. faecium = type: cell-based, Enterococcus faecium; conditions: 50 μM final drug concentration; for AK-based Prestwick library screening result, E. faecium (fold increase in extracellular AK activity): planktonic E. faecium, positive cutoff 3-fold increase
K. pneumoniae = type: cell-based, Klebsiella pneumoniae; conditions: 50 μM final drug concentration; for AK-based Prestwick library screening result, K. pneumoniae (fold increase in extracellular AK activity): planktonic K. pneumoniae, positive cutoff 3-fold increase
[1] = system: S. aureus strain USA300-0114; type: cell-based, Staphylococcus aureus; conditions: 50 μM final drug concentration; for AK-based Prestwick library screening result, S. aureus (fold increase in extracellular AK activity): planktonic S. aureus, positive cutoff 3-fold increase
[2] = system: A. baumannii strain 98-37-09; type: cell-based, Acinetobacter baumannii; conditions: 50 μM final drug concentration; for AK-based Prestwick library screening result, A. baumannii (fold increase in extracellular AK activity): planktonic A. baumannii, positive cutoff 3-fold increase
E. coli = type: cell-based, Escherichia coli; conditions: 50 μM final drug concentration; for AK-based Prestwick library screening result, E. coli (fold increase in extracellular AK activity): planktonic E. coli, positive cutoff 3-fold increase
P. aeruginosa = type: cell-based, Pseudomonas aeruginosa; conditions: 50 μM final drug concentration; for AK-based Prestwick library screening result, P. aeruginosa (fold increase in extracellular AK activity): planktonic P. aeruginosa, positive cutoff 3-fold increase
E. cloacae = type: cell-based, Enterobacter cloacae; conditions: 50 μM final drug concentration; for AK-based Prestwick library screening result, E. cloacae (fold increase in extracellular AK activity): planktonic E. cloacae, positive cutoff 3-fold increase
[3] = cutoff for positive-scoring molecules 3-fold increase
[4] = planktonic, cutoff for positive 3-fold increase

`COc1ccc2cc([C@@H](C)C(=O)[O-])ccc2c1.[Na+]` [(R)-Naproxen sodium salt] was tested, and the “AK-based Prestwick Library Screening Results, E. faecium (fold increase in extracellular AK activity)” value (E. faecium; [3]) was 1.0, the “AK-based Prestwick Library Screening Results, K. pneumoniae (fold increase in extracellular AK activity)” value (K. pneumoniae; [3]) was 1.0 and the “AK-based Prestwick Library Screening Results, S. aureus (fold increase in extracellular AK activity)” value [1, 3] was 1.0. The “AK-based Prestwick Library Screening Results, A. baumannii (fold increase in extracellular AK activity)” value [2, 3] was 1.1, the “AK-based Prestwick Library Screening Results, E. coli (fold increase in extracellular AK activity)” value (E. coli; [3]) was 1.1 and the “AK-based Prestwick Library Screening Results, P. aeruginosa (fold increase in extracellular AK activity)” value (P. aeruginosa; [3]) was 1.0. The “AK-based Prestwick Library Screening Results, E. cloacae (fold increase in extracellular AK activity)” value (E. cloacae; [3]) was 1.7.
`CC(C)NC[C@@H](O)COc1cccc2ccccc12.Cl` [(R)-Propranolol hydrochloride] was tested, and the “AK-based Prestwick library screening result, E. faecium (fold increase in extracellular AK activity)” value (E. faecium) was 0.9, the “AK-based Prestwick library screening result, K. pneumoniae (fold increase in extracellular AK activity)” value (K. pneumoniae) was 0.7 and the “AK-based Prestwick library screening result, S. aureus (fold increase in extracellular AK activity)” value [1] was 0.8. The “AK-based Prestwick library screening result, A. baumannii (fold increase in extracellular AK activity)” value [2] was 0.9, the “AK-based Prestwick library screening result, E. coli (fold increase in extracellular AK activity)” value (E. coli) was 0.8 and the “AK-based Prestwick library screening result, P. aeruginosa (fold increase in extracellular AK activity)” value (P. aeruginosa) was 0.8. The “AK-based Prestwick library screening result, E. cloacae (fold increase in extracellular AK activity)” value (E. cloacae) was 17.3.
`N[C@H]1CONC1=O` [(S)-(−)-Cycloserine] was tested, and the “AK-based Prestwick library screening result, E. faecium (fold increase in extracellular AK activity)” value (E. faecium) was 1.1, the “AK-based Prestwick library screening result, K. pneumoniae (fold increase in extracellular AK activity)” value (K. pneumoniae) was 1.0 and the “AK-based Prestwick library screening result, S. aureus (fold increase in extracellular AK activity)” value [1] was 1.1. For the same molecule, the “AK-based Prestwick library screening result, A. baumannii (fold increase in extracellular AK activity)” value [2] was 1.1, the “AK-based Prestwick library screening result, E. coli (fold increase in extracellular AK activity)” value (E. coli) was 1.3 and the “AK-based Prestwick library screening result, P. aeruginosa (fold increase in extracellular AK activity)” value (P. aeruginosa) was 1.1. The “AK-based Prestwick library screening result, E. cloacae (fold increase in extracellular AK activity)” value (E. cloacae) was 1.6.
`COc1ccc2c(c1OC)CN1CCc3cc4c(cc3C1C2)OCO4` (stereo not shown) [(d,l)-Tetrahydroberberine] was tested, and the “AK-based Prestwick Library Screening Results, E. faecium (fold increase in extracellular AK activity)” value (E. faecium; planktonic, […]) was 0.9, the “AK-based Prestwick Library Screening Results, K. pneumoniae (fold increase in extracellular AK activity)” value (K. pneumoniae; planktonic, […]) was 0.7 and the “AK-based Prestwick Library Screening Results, S. aureus (fold increase in extracellular AK activity)” value ([1]; planktonic, […]) was 0.7. The “AK-based Prestwick Library Screening Results, A. baumannii (fold increase in extracellular AK activity)” value ([2]; planktonic, […]) was 0.9, the “AK-based Prestwick Library Screening Results, E. coli (fold increase in extracellular AK activity)” value (E. coli; planktonic, […]) was 0.8 and the “AK-based Prestwick Library Screening Results, P. aeruginosa (fold increase in extracellular AK activity)” value (P. aeruginosa; planktonic, […]) was 0.8. The “AK-based Prestwick Library Screening Results, E. cloacae (fold increase in extracellular AK activity)” value (E. cloacae; planktonic, […]) was 1.3.
For `C=C[C@H]1CN2CC[C@H]1C[C@H]2[C@H](O)c1ccnc2ccccc12` [(−)-Cinchonidine], the “AK-based Prestwick Library Screening Results, E. faecium (fold increase in extracellular AK activity)” value (E. faecium; [4]) was 1.0, the “AK-based Prestwick Library Screening Results, K. pneumoniae (fold increase in extracellular AK activity)” value (K. pneumoniae; [4]) was 0.8 and the “AK-based Prestwick Library Screening Results, S. aureus (fold increase in extracellular AK activity)” value [1, 4] was 0.9. For the same molecule, the “AK-based Prestwick Library Screening Results, A. baumannii (fold increase in extracellular AK activity)” value [2, 4] was 1.1, the “AK-based Prestwick Library Screening Results, E. coli (fold increase in extracellular AK activity)” value (E. coli; [4]) was 1.3 and the “AK-based Prestwick Library Screening Results, P. aeruginosa (fold increase in extracellular AK activity)” value (P. aeruginosa; [4]) was 1.1. The “AK-based Prestwick Library Screening Results, E. cloacae (fold increase in extracellular AK activity)” value (E. cloacae; [4]) was 1.6.
In the case of `CC(C)(C)NC[C@H](O)COc1cccc2c1CCCC2=O.Cl` [(−)-Levobunolol hydrochloride], the “AK-based Prestwick Library Screening Results, E. faecium (fold increase in extracellular AK activity)” value (E. faecium; [3]) is reported as 1.0, the “AK-based Prestwick Library Screening Results, K. pneumoniae (fold increase in extracellular AK activity)” value (K. pneumoniae; [3]) is reported as 1.0 and the “AK-based Prestwick Library Screening Results, S. aureus (fold increase in extracellular AK activity)” value [1, 3] is reported as 1.0. The “AK-based Prestwick Library Screening Results, A. baumannii (fold increase in extracellular AK activity)” value [2, 3] was 1.0, the “AK-based Prestwick Library Screening Results, E. coli (fold increase in extracellular AK activity)” value (E. coli; [3]) was 1.3 and the “AK-based Prestwick Library Screening Results, P. aeruginosa (fold increase in extracellular AK activity)” value (P. aeruginosa; [3]) was 1.2. The “AK-based Prestwick Library Screening Results, E. cloacae (fold increase in extracellular AK activity)” value (E. cloacae; [3]) was 1.9.
Molecule `COc1ccc(-c2cc(=O)c3c(O)cc(O)cc3o2)cc1` [Acacetin] has a fold induction at 50 µM (E. faecium; Enterococcus faecium, 3 h, cutoff for positive-scoring molecules 3-fold increase, read-out: AK-based Prestwick Library Screening Results, E. faecium (fold increase in extracellular AK activity)) of 0.5, a fold induction at 50 µM (K. pneumoniae; Klebsiella pneumoniae, 3 h, cutoff for positive-scoring molecules 3-fold increase, read-out: AK-based Prestwick Library Screening Results, K. pneumoniae (fold increase in extracellular AK activity)) of 0.6 and a fold induction at 50 µM ([1]; Staphylococcus aureus, USA300, 3 h, cutoff for positive-scoring molecules 3-fold increase, read-out: AK-based Prestwick Library Screening Results, S. aureus (fold increase in extracellular AK activity)) of 0.7. For the same molecule, the fold induction at 50 µM ([2]; Acinetobacter baumannii, 983709, 3 h, cutoff for positive-scoring molecules 3-fold increase, read-out: AK-based Prestwick Library Screening Results, A. baumannii (fold increase in extracellular AK activity)) was 0.3, the fold induction at 50 µM (E. coli; Escherichia coli, 3 h, cutoff for positive-scoring molecules 3-fold increase, read-out: AK-based Prestwick Library Screening Results, E. coli (fold increase in extracellular AK activity)) was 0.7 and the fold induction at 50 µM (P. aeruginosa; Pseudomonas aeruginosa, 3 h, cutoff for positive-scoring molecules 3-fold increase, read-out: AK-based Prestwick Library Screening Results, P. aeruginosa (fold increase in extracellular AK activity)) was 0.6. It also gave a fold induction at 50 µM (E. cloacae; Enterobacter cloacae, 3 h, cutoff for positive-scoring molecules 3-fold increase, read-out: AK-based Prestwick Library Screening Results, E. cloacae (fold increase in extracellular AK activity)) of 1.6.

Source: US10004701B2, “Methods and compositions for treating infection” (UNIVERSITY OF ROCHESTER, priority 2012, dated 2018)
